# Activity calls are given as the source filed them. The calls are words filed in the database; no cut-off is given here.
# How the values were obtained:
# [1] = tested on: Candida albicans; test: Fungicidal activity against Candida albicans ATCC 18804 assessed as fungal killing incubated for 48 hrs followed by plating on SD agar plate; format: functional; settings: read-out: MFC99.9
# [2] = Toxicity in Swiss mouse infected with Candida albicans ATCC 10231 assessed as effect on lung weight at 10 mg/kg, ip administered at 2, 24 and 48 hrs post-infection and measured at 24 hrs after last dose; format: organism-based; settings: in vivo, 72 h
# [3] = Toxicity in Swiss mouse assessed as relative liver weight at 3 mg/kg, ip measured after 24 hrs (reference value: 49.42 +/- 7.17 g); format: organism-based; settings: in vivo
# [4] = Toxicity in Swiss mouse assessed as relative spleen weight at 10 mg/kg, ip measured after 24 hrs (reference value: 4.02 +/- 0.59 g); format: organism-based; settings: in vivo
# [5] = tested on: Candida albicans; test: Fungicidal activity against Candida albicans ATCC 10231 assessed as fungal killing incubated for 48 hrs followed by plating on SD agar plate; format: functional; settings: read-out: MFC99.9
# [6] = tested on: Pichia kudriavzevii; test: Antifungal activity against Candida krusei ATCC 34135 assessed as reduction in fungal growth incubated for 48 hrs by broth microdilution method; format: functional
# [7] = Toxicity in Swiss mouse infected with Candida albicans ATCC 10231 assessed as effect on kidney at 10 mg/kg, ip administered at 2, 24 and 48 hrs post-infection and measured at 24 hrs after last dose by macroscopic analysis; format: organism-based; settings: in vivo, 72 h
# [8] = tested on: Candida albicans; test: Antifungal activity against Candida albicans ATCC 18804 assessed as reduction in fungal growth incubated for 48 hrs by broth microdilution method; format: functional
# [9] = tested on: Candida albicans; test: Fungicidal activity against Candida albicans isolate 12 assessed as fungal killing incubated for 48 hrs followed by plating on SD agar plate; format: functional; settings: read-out: MFC99.9
# [10] = Toxicity in Swiss mouse assessed as relative heart weight at 20 mg/kg, ip measured after 24 hrs (reference value: 4.75 +/- 0.60 g); format: organism-based; settings: in vivo
# [11] = Toxicity in Swiss mouse assessed as relative lung weight at 20 mg/kg, ip measured after 24 hrs (reference value: 6.35 +/- 0.68 g); format: organism-based; settings: in vivo
# [12] = tested on: Candida albicans; test: Antifungal activity against Candida albicans isolate 9 assessed as reduction in fungal growth incubated for 48 hrs by broth microdilution method; format: functional
# [13] = Toxicity in Swiss mouse infected with Candida albicans ATCC 10231 assessed as effect on heart at 10 mg/kg, ip administered at 2, 24 and 48 hrs post-infection and measured at 24 hrs after last dose by macroscopic analysis; format: organism-based; settings: in vivo, 72 h
# [14] = Toxicity in Swiss mouse assessed as relative spleen weight at 20 mg/kg, ip measured after 24 hrs (reference value: 4.02 +/- 0.59 g); format: organism-based; settings: in vivo
# [15] = Toxicity in Swiss mouse assessed as body weight at 1 mg/kg, ip measured after 24 hrs (reference value: 36.25 +/- 0.31 g); format: organism-based; settings: in vivo
# [16] = tested on: Pichia kudriavzevii; test: Antifungal activity against Candida krusei ATCC 34135 assessed as reduction in fungal growth incubated for 48 hrs in presence of ergosterol by broth microdilution method; format: functional
# [17] = Toxicity in Swiss mouse assessed as body weight at 0.5 mg/kg, ip measured after 24 hrs (reference value: 36.25 +/- 0.31 g); format: organism-based; settings: in vivo
# [18] = tested on: Candida albicans; test: In vivo antifungal activity in Swiss mouse infected with Candida albicans ATCC 10231 assessed as reduction in fungal load in spleen at 1 mg/kg, ip administered at 2, 24 and 48 hrs post-infection and measured per gm of organ at 24 hrs post-last dose (reference value: 2.34); format: functional; settings: time 72 hrs
# [19] = tested on: Candida albicans; test: Antifungal activity against Candida albicans isolate 2 assessed as reduction in fungal growth incubated for 48 hrs by broth microdilution method; format: functional
# [20] = Toxicity in Swiss mouse assessed as signs of toxicity at 0.5 to 10 mg/kg, ip measured upto 4 hrs; format: organism-based; settings: in vivo, dose 0.5-10 mg/kg
# [21] = tested on: Candida albicans; test: Antifungal activity against Candida albicans isolate 3 assessed as reduction in fungal growth incubated for 48 hrs by broth microdilution method; format: functional
# [22] = tested on: Candida albicans; test: Fungicidal activity against Candida albicans ATCC 10231 assessed as reduction in fungal load at 7.8 to 15.6 ug/ml incubated for 8 hrs followed by inoculation on SD agar plate for 48 hrs by time-kill assay; format: functional, organism-based; settings: dose 7.8-15.6 µg/ml, time 56.0 hrs
# [23] = Toxicity in Swiss mouse assessed as effect on liver at 0.5 to 10 mg/kg, ip measured after 24 hrs by macroscopic analysis; format: organism-based; settings: in vivo, dose 0.5-10 mg/kg
# [24] = tested on: Candida albicans; test: Fungicidal activity against Candida albicans isolate 8 assessed as fungal killing incubated for 48 hrs followed by plating on SD agar plate; format: functional; settings: read-out: MFC99.9
# [25] = tested on: Candida albicans; test: Antibiofilm activity against Candida albicans ATCC 10231 assessed as reduction in mature biofilm at 125 ug/ml incubated for 48 hrs by crystal violet staining based spectrophotometric analysis relative to control; format: functional
# [26] = tested on: Candida albicans; test: Antifungal activity against Candida albicans isolate 8 assessed as reduction in fungal growth incubated for 48 hrs by broth microdilution method; format: functional
# [27] = tested on: Candida albicans; test: Antifungal activity against Candida albicans isolate 7 assessed as reduction in fungal growth incubated for 48 hrs by broth microdilution method; format: functional
# [28] = tested on: Candida albicans; test: Antifungal activity against Candida albicans isolate 11 assessed as reduction in fungal growth incubated for 48 hrs by broth microdilution method; format: functional
# [29] = Toxicity in Swiss mouse assessed as ataxia at 20 mg/kg, ip measured after 30 mins; format: organism-based; settings: in vivo, 0.5 h
# [30] = Toxicity in Swiss mouse infected with Candida albicans ATCC 10231 assessed as effect on heart weight at 10 mg/kg, ip administered at 2, 24 and 48 hrs post-infection and measured at 24 hrs after last dose; format: organism-based; settings: in vivo, 72 h
# [31] = tested on: Candida albicans; test: Antifungal activity against Candida albicans ATCC 10231 assessed as inhibition of yeast to hypha morphological transition at 15.6 ug/ml measured upto 72 hrs by microscopic analysis; format: functional, organism-based; settings: dose 15.6 µg/ml, time hrs <=72
# [32] = tested on: Candida albicans; test: Antifungal activity against Candida albicans isolate 5 assessed as reduction in fungal growth incubated for 48 hrs by broth microdilution method; format: functional
# [33] = Toxicity in Swiss mouse assessed as relative kidney weight at 0.5 mg/kg, ip measured after 24 hrs (reference value: 14.91 +/- 0.99 g); format: organism-based; settings: in vivo
# [34] = tested on: Candida albicans; test: In vivo antifungal activity in Swiss mouse infected with Candida albicans ATCC 10231 assessed as reduction in fungal load in kidney at 0.5 mg/kg, ip administered at 2, 24 and 48 hrs post-infection and measured per gm of organ at 24 hrs post-last dose (reference value: 2.47); format: functional; settings: time 72 hrs
# [35] = tested on: Candida tropicalis; test: Disruption of cell membrane in Candida tropicalis ATCC 28707 assessed as increase in intracellular leakage at MIC incubated for 24 hrs by UV spectrophotometric analysis; format: cell-based
# [36] = Toxicity in Swiss mouse assessed as effect on spleen at 0.5 to 10 mg/kg, ip measured after 24 hrs by macroscopic analysis; format: organism-based; settings: in vivo, dose 0.5-10 mg/kg
# [37] = tested on: Nakaseomyces glabratus; test: Fungicidal activity against Candida glabrata ATCC 2001 assessed as fungal killing incubated for 48 hrs followed by plating on SD agar plate; format: functional; settings: read-out: MFC99.9
# [38] = tested on: Candida albicans; test: Fungicidal activity against Candida albicans isolate 1 assessed as fungal killing incubated for 48 hrs followed by plating on SD agar plate; format: functional; settings: read-out: MFC99.9
smiles,measurement,setting,value
[Cl-].[N-]=[N+]=NCCCCCCCCCCCCOCCCc1ccc[n+](Cc2ccccc2)c1,MFC,[1],31.2 µg/mL
same,Activity,[2],Non-Toxic
same,Activity,[3],45.03 g
same,Activity,[4],2.85 g
same,MFC,[5],7.8 µg/mL
same,MIC,[6],3.9 µg/mL
same,Activity,[7],Non-Toxic
same,MIC,[8],7.8 µg/mL
same,MFC,[9],7.8 µg/mL
same,Activity,[10],4.93 g
same,Activity,[11],5.38 g
same,MIC,[12],15.6 µg/mL
same,Activity,[13],Non-Toxic
same,Activity,[14],2.93 g
same,Activity,[15],37.87 g
same,MIC,[16],15.6 µg/mL
same,Activity,[17],37.37 g
same,Activity,[18],0 log10CFU
same,MIC,[19],7.8 µg/mL
same,Activity,[20],Non-Toxic
same,MIC,[21],7.8 µg/mL
same,Activity,[22],Active
same,Activity,[23],Non-Toxic
same,MFC,[24],7.8 µg/mL
same,inhibition at 125 µg/mL,[25],40%
same,MIC,[26],3.9 µg/mL
same,MIC,[27],1.95 µg/mL
same,MIC,[28],7.8 µg/mL
same,Activity,[29],Toxic
same,Activity,[30],Non-Toxic
same,Activity,[31],Active
same,MIC,[32],7.8 µg/mL
same,Activity,[33],14.41 g
same,Activity,[34],0 log10CFU
same,Activity,[35],Active
same,Activity,[36],Non-Toxic
same,MFC,[37],7.8 µg/mL
same,MFC,[38],7.8 µg/mL
